Consider two compounds from patent US4409238A, “Insecticides and insecticidal compositions” (Kuraray Co., Ltd., priority 1977, dated 1983).

For series [1], the system named is houseflies (Musca domestica). The series is described as follows: Mortality test against houseflies by topical application method (Test Example 1). The following applies: female adult houseflies, 24 hours, 25° C. The format is in vivo. The procedure: Each test compound was accurately weighed and a 1% solution and a 0.1% solution of the sample in acetone were prepared. A 1 μl portion of either of the above solutions was micropipetted onto the thoracic dorsal part of each female adult housefly (Musca domestica) under ether anaesthesia and the fly was released in a high-walled dish together with feed. The dish was covered with a metal-wire net and maintained at 25° C. After 24 hours, the test flies were inspected for deaths and the mortality (%) was calculated. Thirty test flies were used per concentration group.

The subject of series [2] is green rice leafhoppers (Nephotettix cincticeps). The series is described as follows: Mortality test against green rice leafhoppers by topical application method (Test Example 2). The format is in vivo. The note with it: 0.1% solution in acetone, female adults, 24 hours, 25° C. The procedure:
Each test compound was accurately weighed and an 0.1% solution in acetone was prepared. Female adults of green rice leafhopper (Nephotettix cincticeps) were anaesthetized with carbon dioxide gas and 0.5 µl of the above solution was micropipetted onto the thoracic abdominal part of each leafhopper. Then, the test leafhoppers were kept at 25° C. with access to rice plant seedlings. Each group comprised 15 green rice leafhoppers. After 24 hours, the leafhoppers were inspected for deaths and the mortality (%) was calculated for each compound.

Series [3] relates to cockroaches (Blattella germanica). The series is described as follows: Mortality test against cockroaches by topical application method (Test Example 3). The format is in vivo. The note with it: 1 μl of 1% solution in acetone, female cockroaches, 24 hours, 25° C. The procedure:
Each test compound was accurately weighed and made in a 1% solution in acetone. Then, 1 μl of the above solution was micropipetted onto the abdominal part of each female cockroach (Blattella germanica) under ether anaesthesia. The roaches were released in a high-walled dish together with feed and, after the disk was covered with a metal wire net, same was maintained at 25° C. Fifteen roaches per group were employed. After 24 hours, the test roaches were inspected for deaths and the mortality (%) for each group was calculated.

The nature of series [4]: Light stability test (Test Example 4). The note with it: direct sunlight between glass plates, 12° C., relative to aluminum foil-covered control; for remaining at 4 h: read-out: Residue (%) Exposure time 4 hrs.; for remaining at 8 h: read-out: Residue (%) Exposure time 8 hrs. It is filed as physicochemical. How it is done:
Into 2.0 ml of acetone were dissolved 80 mg of each test compound. A 5 μl portion of the solution was taken and spread on a glass plate (Micro Standard Cover Glass, 18 m/m No. 1, 200 pcs, Matsunami Glass Ind., Ltd.) and the acetone was evaporated. Then, a similar glass plate was superimposed on the above plate in such a manner that the test liquid was sandwitched. The specimen was exposed to direct sunlight at an atmospheric temperature of 12° C. for a predetermined exposure time. As an unexposed control, a similar specimen was covered with an aluminum foil. The test liquid was washed away with 1.0 ml of methanol containing 0.04% of dioctyl phthalate as an internal reference and high-speed liquid chromatography was carried out on the washings to determine the residual amount of the test compound. The residue (%) was calculated with the value for the aluminum foil-covered control specimen as the standard.

Another series relates to green rice leafhoppers. The series is described as follows: Spray test on rice seedlings against green rice leafhoppers (Utility Example 1). It is filed as in vivo, green rice leafhoppers (Nephotettix cincticeps). The note with it: 30% emulsifiable concentrate (Formulation Example 5) diluted 300-fold, 10 ml/pot, 24 hours. How it is done: To 30 parts of each of Compounds [1], [2], [5] to [13] and [17] to [19] was added 50 parts of xylene and 20 parts of Sorpol SM-200 (a surfactant, trademark of Toho Chemical Co., Ltd.). The mixture was stirred well and dissolved to obtain a 30% emulsifiable concentrate.
The emulsifiable concentrate prepared from Compounds [1], [2], [6], [7], [9], [10], [12] and [13] in Formulation Example 5 were each diluted 300-fold with water. Then, each of the dilutions was sprayed over rice seedlings 25 days after sowing at the rate of 10 ml/pot. The pot was covered with a wire-net and 15 green rice leafhoppers were released under the net. After 24 hours, the leafhoppers were examined for deaths. The mortality (%) was not less than 90% for each of Compounds [1], [2], [6], [7], [9], [10], [12] and [13].

The test system of series [5] is houseflies (Musca domestica). The series is described as follows: Settling mist mortality test against houseflies, oil preparations of Formulation Example 1 (Utility Example 2). The note with it: oil preparation with 0.2 part compound and 0.8 part piperonyl butoxide per 100 parts, 24 hours. It is filed as in vivo. How it is done:
0.2 part of each of Compounds [1], [2], [5] to [13] and [17] was prepared and 0.8 part of piperonyl butoxide was added to each of them. To this mixture was added a sufficient amount of kerosene to make 100 parts, followed by stirring. By this procedure there was obtained an oil preparation of each Compound.
By the settling mist method, a mortality test against houseflies (Musca domestica) was carried out using the oil preparations obtained according to Formulation Example 1 from Compounds [1], [2], [5] to [11] […]. After 24 hours, the flies were examined for deaths. The mortality (%) was not less than 90% for each of Compounds [1], [2], [5] to [11] to [17].

For a further series, the system named is houseflies. The series is described as follows: Settling mist mortality test against houseflies, oil preparations of Formulation Example 2 (Utility Example 3). It is filed as in vivo, houseflies (Musca domestica). The following applies: oil preparation with 0.1 part compound and 0.1 part resmethrin per 100 parts, 24 hours. The procedure:
To 0.1 part of each of Compounds [1] to [17] was added 0.1 part of resmethrin, followed by the addition of a sufficient amount of kerosene to make 100 parts. The mixture was stirred to obtain an oil preparation of each compound.
By the settling mist method, a mortality test against houseflies was carried out using the oil preparations made in Formulation Example 2 from Compounds [1], [2], [5] to [11] and [17]. After 24 hours, the flies were examined for deaths. The mortality (%) was not less than 90% for each of Compounds [1], [2], [5] to [11] and [17].

A further series concerns house-flies. The series is described as follows: Settling mist mortality test against houseflies, oil preparations of Formulation Example 3 (Utility Example 4). The format is in vivo, houseflies (Musca domestica). The note with it: oil preparation with 0.1 part compound and 0.08 part permethrin per 100 parts, 24 hours. How it is done:
To 0.1 part of each of Compounds [1] to [28] was added 0.08 part of permethrin, followed by the addition of a sufficient amount of kerosene to make 100 parts. The mixture was stirred to obtain an oil preparation of each compound.
By the settling mist method, a mortality test against house-flies was carried out using the oil preparations obtained in Formulation Example 3 from Compounds [1], [2], [5] to [11] and [17]. After 24 hours, the flies were examined for deaths. The mortality (%) was not less than 90% for each of Compounds [1], [2], [5] to [11] and [17].

Series [6] can be described thus: Hydrolysis resistance test (Test Example 5). The format is physicochemical. The following applies: acetone/water, reflux for 2 days; read-out: Residue (%). The procedure:
Into about 8 ml of acetone were dissolved 100 mg of each test compound and, then, 1.0 g of water was added to this solution to prepare a mixed solution. This mixed solution was refluxed for 2 days. After concentration to about one half of the original volume and with the addition of dioctyl phthalate as an internal reference, the residual amount of the compound was determined by high-speed liquid chromatography. The residue (%) was then calculated.

Another series deals with guppies. The series is described as follows: Fish toxicity test (Test Example 6). The format is in vivo. The following applies: female guppies, 48 hours, 25° C.; concentration at which 90% or more were killed. The procedure:
To 5 l of water were added 250 mg of sorpol SM-200 (registered trademark, Toho Chemical Co., Ltd.) or Tween-20 (commercial product) as an emulsifier (surfactant) as well as 2.5 ml of an acetone solution containing one of the test compounds in a predetermined concentration. The mixture was stirred well to prepare a test water. Ten female guppies from 3 to 4 months of age were released into the test water and maintained at 25° C. The concentration of the test compound at which 90% or more of the guppies were killed during the ensuring 48 hours was determined. (This concentration is referred to as LC90).

By mortality is commonly meant the percentage killed.

On to `CC(C)C(C=C(Cl)Cl)C(=O)OC(C#N)c1cccc(Oc2ccccc2)c1` (stereo not drawn) [Compound [1], α-Cyano-3-phenoxybenzyl α-(2,2-dichlorovinyl)isovalerate], for which the “Mortality (%) 1 μg/fly” value in series [1] stood at 100%. In series [1], the “Mortality (%) 10 μg/fly” value amounted to 100%. For the same compound, in series [2], the mortality at 0.1 % is ≥ 90%. Moreover, the mortality at 1 %, 0.01 mg in series [3] came to 100%. Moreover, the remaining at 4 h in series [4] worked out at 93%. Also, the remaining at 8 h in series [4] worked out at 90%. Also, the “Mortality (%)” value (with green rice leafhoppers; in [5]; in the series on houseflies; in the series on house-flies) was “not less than 90%” throughout.

With `C#CC(OC(=O)C(C=C(Cl)Cl)C(C)C)c1cccc(Oc2ccccc2)c1` (stereo not drawn) [[2], α-Ethynyl-3-phenoxybenzyl α-(2,2-dichlorovinyl)isovalerate], in series [1], the “Mortality (%) 1 μg/fly” value worked out at 100%. Further, in [1], the “Mortality (%) 10 μg/fly” value was found to be 100%. For the same compound, in series [3], the mortality at 1 %, 0.01 mg amounted to 80%. In addition, in series [4], the remaining at 4 h amounted to 97%. For the same compound, the remaining at 8 h in [4] came to 100%. Moreover, the remaining at 48 h in series [6] is > 90%. For the same compound, in the series with guppies, the LC90 result is given as “Not less than 10 ppm”. The “Mortality (%)” value (with green rice leafhoppers; in [5]; in the series with houseflies; in the series on house-flies) was “not less than 90%” each time.
